Results: the supplement of paper PMC11451515

Experiments:
Settings in all cases: 48 h
NOMO1 [1] = test: cell viability relative to DMSO control; higher = less cytotoxic
How it was run: (§1)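 Library compounds in DMSO were pin-dosed in an 11-point threefold series (47 μM to 0.79 nM) onto leukemia cells in 1536-well plates (5 μl). Plates held 500 cells/well of NOMO1 or SEM or 1000 cells/well of P12-Ichikawa, each adapted for at least four passages in each medium. Luminescence was read with CellTiter-Glo One after 48 h at 37°C. Viability means the per-plate percentage relative to DMSO wells, using cell-free wells as background.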

P12-Ichikawa [2] = test: as above
How it was run: as §1

SEM cells [3] = test: as above
How it was run: as §1

NOMO1 [4] = test: AUC of viability dose-response curve (% viability x log10 dose units); higher = less sensitive
How it was run: (§2)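 In 1536-well plates, leukemia cells adapted to each medium (500 or 1000 cells/well) were exposed for 48 h at 37°C to library compounds in DMSO across 11 threefold doses, 47 μM down to 0.79 nM. Viability was read by CellTiter-Glo One luminescence and normalised per plate to DMSO and cell-free wells. A four-parameter log-logistic fit over log10 doses was integrated by trapezoidal rule. This yielded the area under the curve, with over-full-viability curves scaled and quality-control failures dropped.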

P12-Ichikawa [5] = test: as above
How it was run: as §2

SEM cells [6] = test: as above
How it was run: as §2

O=C(O)c1ccc2c(c1)nc(Nc1cccc(Cl)c1)c1ccncc12
cell viability [%]
Settings	NOMO1 [1]	P12-Ichikawa [2]	SEM cells [3]
HPLM + 10% dialyzed FBS, 0.000781 µM	114	106	103
HPLM + 10% dialyzed FBS, 0.00234 µM	109	112	114
HPLM + 10% dialyzed FBS, 0.00702 µM	131	104	106
HPLM + 10% dialyzed FBS, 0.0211 µM	115	104	105
HPLM + 10% dialyzed FBS, 0.0632 µM	114	108	110
HPLM + 10% dialyzed FBS, 0.19 µM	119	109	101
HPLM + 10% dialyzed FBS, 0.569 µM	125	104	117
HPLM + 10% dialyzed FBS, 1.71 µM	114	104	102
HPLM + 10% dialyzed FBS, 5.12 µM	73.8	94.8	77.6
HPLM + 10% dialyzed FBS, 15.4 µM	49.2	71.8	35.9
HPLM + 10% dialyzed FBS, 46.1 µM	78.1	83.4	48.8
RPMI 5 mM glucose + 10% FBS, 0.000781 µM	93	112	107
RPMI 5 mM glucose + 10% FBS, 0.00234 µM	93.5	111	108
RPMI 5 mM glucose + 10% FBS, 0.00702 µM	103	108	98.5
RPMI 5 mM glucose + 10% FBS, 0.0211 µM	103	98.4	103
RPMI 5 mM glucose + 10% FBS, 0.0632 µM	94.6	108	111
RPMI 5 mM glucose + 10% FBS, 0.19 µM	103	108	127
RPMI 5 mM glucose + 10% FBS, 0.569 µM	92.7	105	104
RPMI 5 mM glucose + 10% FBS, 1.71 µM	90.8	100	98.1
RPMI 5 mM glucose + 10% FBS, 5.12 µM	83.7	84.4	70.7
RPMI 5 mM glucose + 10% FBS, 15.4 µM	65.6	58.9	32.1
RPMI 5 mM glucose + 10% FBS, 46.1 µM	79.2	70.2	46
RPMI 5 mM glucose + 10% dialyzed FBS, 0.000781 µM	100	99.4	103
RPMI 5 mM glucose + 10% dialyzed FBS, 0.00234 µM	105	94.2	103
RPMI 5 mM glucose + 10% dialyzed FBS, 0.00702 µM	101	93.8	105
RPMI 5 mM glucose + 10% dialyzed FBS, 0.0211 µM	101	97.4	99.5
RPMI 5 mM glucose + 10% dialyzed FBS, 0.0632 µM	107	100	107
RPMI 5 mM glucose + 10% dialyzed FBS, 0.19 µM	99.1	95.9	125
RPMI 5 mM glucose + 10% dialyzed FBS, 0.569 µM	91.9	94.5	114
RPMI 5 mM glucose + 10% dialyzed FBS, 1.71 µM	101	101	102
RPMI 5 mM glucose + 10% dialyzed FBS, 5.12 µM	81.5	77.8	62.2
RPMI 5 mM glucose + 10% dialyzed FBS, 15.4 µM	47.2	51.4	30.4
RPMI 5 mM glucose + 10% dialyzed FBS, 46.1 µM	77.5	73	38.5

AUC of viability dose-response curve
Settings	NOMO1 [4]	P12-Ichikawa [5]	SEM cells [6]
HPLM + 10% dialyzed FBS	425	453	421
RPMI 5 mM glucose + 10% FBS	437	437	412
RPMI 5 mM glucose + 10% dialyzed FBS	441	429	406

C[C@]1(c2nc3c(C(N)=O)cccc3[nH]2)CCCN1
cell viability [%]
Settings	NOMO1 [1]	P12-Ichikawa [2]	SEM cells [3]
HPLM + 10% dialyzed FBS, 0.000781 µM	70.8	78.7	63.8
HPLM + 10% dialyzed FBS, 0.00234 µM	69.6	83.9	74.1
HPLM + 10% dialyzed FBS, 0.00702 µM	84	79.3	75.9
HPLM + 10% dialyzed FBS, 0.0211 µM	82.2	88.8	89.1
HPLM + 10% dialyzed FBS, 0.0632 µM	80.8	82.2	78.3
HPLM + 10% dialyzed FBS, 0.19 µM	88.9	87.2	81.3
HPLM + 10% dialyzed FBS, 0.569 µM	84.2	88.4	74.5
HPLM + 10% dialyzed FBS, 1.71 µM	74.6	83.2	90.6
HPLM + 10% dialyzed FBS, 5.12 µM	67.1	81.3	87.2
HPLM + 10% dialyzed FBS, 15.4 µM	93	89.5	80.3
HPLM + 10% dialyzed FBS, 46.1 µM	31.4	72.4	63
RPMI 5 mM glucose + 10% FBS, 0.000781 µM	65.2	70.9	81
RPMI 5 mM glucose + 10% FBS, 0.00234 µM	80.4	78.2	62.7
RPMI 5 mM glucose + 10% FBS, 0.00702 µM	72.5	74.9	68
RPMI 5 mM glucose + 10% FBS, 0.0211 µM	79.5	82.6	88.8
RPMI 5 mM glucose + 10% FBS, 0.0632 µM	76.3	82.9	83
RPMI 5 mM glucose + 10% FBS, 0.19 µM	76.3	72.9	87.4
RPMI 5 mM glucose + 10% FBS, 0.569 µM	85.6	77.7	89.7
RPMI 5 mM glucose + 10% FBS, 1.71 µM	72	72.4	85
RPMI 5 mM glucose + 10% FBS, 5.12 µM	68.9	83.3	98
RPMI 5 mM glucose + 10% FBS, 15.4 µM	81.3	80.4	98.1
RPMI 5 mM glucose + 10% FBS, 46.1 µM	23	5.38	59.8
RPMI 5 mM glucose + 10% dialyzed FBS, 0.000781 µM	62.8	78.1	68.5
RPMI 5 mM glucose + 10% dialyzed FBS, 0.00234 µM	77	74.3	63.7
RPMI 5 mM glucose + 10% dialyzed FBS, 0.00702 µM	76.8	74.3	64.9
RPMI 5 mM glucose + 10% dialyzed FBS, 0.0211 µM	82.3	81.4	87.2
RPMI 5 mM glucose + 10% dialyzed FBS, 0.0632 µM	87.5	83.5	71.9
RPMI 5 mM glucose + 10% dialyzed FBS, 0.19 µM	93.7	76.9	79
RPMI 5 mM glucose + 10% dialyzed FBS, 0.569 µM	89.6	79	84.5
RPMI 5 mM glucose + 10% dialyzed FBS, 1.71 µM	90.6	81.6	75.6
RPMI 5 mM glucose + 10% dialyzed FBS, 5.12 µM	73.1	72.8	76.7
RPMI 5 mM glucose + 10% dialyzed FBS, 15.4 µM	77.4	82.1	76.7
RPMI 5 mM glucose + 10% dialyzed FBS, 46.1 µM	26.1	2.96	51.5

AUC of viability dose-response curve
Settings	NOMO1 [4]	P12-Ichikawa [5]	SEM cells [6]
HPLM + 10% dialyzed FBS	368	399	372
RPMI 5 mM glucose + 10% FBS	349	353	393
RPMI 5 mM glucose + 10% dialyzed FBS	374	356	352
